Experiment [1] has as its target T1, Rat α4β2 nAChR subtype (Rattus norvegicus, UniProt P09483+P12390).
T1 construct: from tissue; host or cells: rat cerebral cortex membranes (female Sprague-Dawley)
As to the kind of experiment: [3H]nicotine radioligand binding, membranes from rat cortex. Here is the method: Preparation of membranes from rat cortex: Rats (female, Sprague-Dawley), weighing 150-250 g, were maintained on a 12 h light/dark cycle and were allowed free access to water and food supplied by PMI Nutrition International, Inc. Animals were anesthetized with 70% CO2, and then decapitated. Brains were removed and placed on an ice-cold platform. The cerebral cortex was removed and placed in 20 volumes (weight:volume) of ice-cold preparative buffer (137 mM NaCl, 10.7 mM KCl, 5.8 mM KH2PO4, 8 mM Na2HPO4, 20 mM HEPES (free acid), 5 mM iodoacetamide, 1.6 mM EDTA, pH 7.4); PMSF, dissolved in methanol to a final concentration of 100 μM, was added and the suspension was homogenized by Polytron. The homogenate was centrifuged at 18,000×g for 20 min at 4° C. and the resulting pellet was re-suspended in 20 volumes of ice-cold water. After 60 min incubation on ice, a new pellet was collected by centrifugation at 18,000×g for 20 min at 4° C. The final pellet was re-suspended in 10 volumes of buffer and stored at ˜20° C.
(§1) On the day of the assay, the frozen membranes were thawed and spun at 48,000×g for 20 min. The supernatant was decanted and discarded. The pellet was resuspended in Dulbecco's phosphate buffered saline (PBS, Life Technologies) pH 7.4 and homogenized with the Polytron for 6 seconds. Protein concentrations were determined using a Pierce BCA Protein Assay Kit, with bovine serum albumin as the standard (Pierce Chemical Company, Rockford, Ill.).
(§2) Assay: Membrane preparations (approximately 50 μg for human and 200-300 μg protein for rat α4β2) were incubated in PBS (50 μL and 100 μL respectively) in the presence of competitor compound (0.01 nM to 100 μM) and 5 nM [^3H]nicotine for 2-3 hours on ice. Incubation was terminated by rapid filtration on a multi-manifold tissue harvester (Brandel, Gaithersburg, Md.) using GF/B filters presoaked in 0.33% polyethyleneimine (w/v) to reduce non-specific binding. Tissue was rinsed 3 times in PBS, pH 7.4. Scintillation fluid was added to filters containing the washed tissue and allowed to equilibrate. Filters were then counted to determine radioactivity bound to the membranes by liquid scintillation counting (2200CA Tri-Carb LSC, Packard Instruments, 50% efficiency or Wallac Trilux 1450 MicroBeta, 40% efficiency, Perkin Elmer).
(§3) Data were expressed as disintegrations per minute (DPMs). Within each assay, each point had 2-3 replicates. The replicates for each point were averaged and plotted against the log of the drug concentration. IC50, which is the concentration of the compound that produces 50% inhibition of binding, was determined by least squares non-linear regression. Ki values were calculated using the Cheng-Prussof equation (1973): […]
(§4) where N is the concentration of [^3H]nicotine and Kd is the affinity of nicotine (3 nM, determined in a separate experiment).

Experiment [2] addresses T2, Human α4β2 nAChR subtype (Homo sapiens, UniProt P17787+P43681).
T2 construct: expressed in transfected cells; host or cells: SH-EP1 clonal cells
The experiment is described as follows: [3H]nicotine radioligand binding, membranes from SH-EP1/human α4β2 clonal cells. Here is the method:
Preparation of membranes from SH-EP1/human α4β2 clonal cells:
Cell pellets from 40 150 mm culture dishes were pooled, and homogenized by Polytron (Kinematica GmbH, Switzerland) in 20 milliliters of ice-cold preparative buffer. The homogenate was centrifuged at 48,000 g for 20 minutes at 4° C. The resulting pellet was re-suspended in 20 mL of ice-cold preparative buffer and stored at ˜20° C.
as §1, §2, §3, §4

Setting [3] is: [3H]nicotine, "Failed HTS" = failed to bind sufficiently in high through-put screening to warrant Ki determination.
The mark [4] stands for this setting: [3H]nicotine, "Failed HTS" = failed to bind sufficiently in high through-put screening to warrant Ki determination, read-out: Human α4β2 Ki.
[5] abbreviates: [3H]nicotine, "Failed HTS" = failed to bind sufficiently in high through-put screening to warrant Ki determination, read-out: Rat α4β2 Ki.

Like-named read-outs stand apart in the source and are kept apart here.

T2 sequence (P43681 29-627 limits assumed): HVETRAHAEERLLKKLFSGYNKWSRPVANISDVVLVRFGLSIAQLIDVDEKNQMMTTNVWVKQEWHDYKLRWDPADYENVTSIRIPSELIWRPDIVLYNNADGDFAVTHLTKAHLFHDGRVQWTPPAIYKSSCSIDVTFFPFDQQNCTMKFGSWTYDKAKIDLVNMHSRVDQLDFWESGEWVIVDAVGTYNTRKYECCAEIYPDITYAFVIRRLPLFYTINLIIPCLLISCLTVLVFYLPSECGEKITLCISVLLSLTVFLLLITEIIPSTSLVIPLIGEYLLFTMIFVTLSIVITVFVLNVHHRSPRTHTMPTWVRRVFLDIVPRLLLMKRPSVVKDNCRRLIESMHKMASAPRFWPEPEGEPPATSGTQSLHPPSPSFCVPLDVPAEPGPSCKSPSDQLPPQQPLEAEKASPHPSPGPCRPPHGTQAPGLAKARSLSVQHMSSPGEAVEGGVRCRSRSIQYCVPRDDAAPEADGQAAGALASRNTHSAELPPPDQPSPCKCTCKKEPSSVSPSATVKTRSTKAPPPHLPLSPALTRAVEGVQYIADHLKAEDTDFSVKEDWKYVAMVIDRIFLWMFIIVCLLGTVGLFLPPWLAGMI
T2 sequence (P17787 26-502): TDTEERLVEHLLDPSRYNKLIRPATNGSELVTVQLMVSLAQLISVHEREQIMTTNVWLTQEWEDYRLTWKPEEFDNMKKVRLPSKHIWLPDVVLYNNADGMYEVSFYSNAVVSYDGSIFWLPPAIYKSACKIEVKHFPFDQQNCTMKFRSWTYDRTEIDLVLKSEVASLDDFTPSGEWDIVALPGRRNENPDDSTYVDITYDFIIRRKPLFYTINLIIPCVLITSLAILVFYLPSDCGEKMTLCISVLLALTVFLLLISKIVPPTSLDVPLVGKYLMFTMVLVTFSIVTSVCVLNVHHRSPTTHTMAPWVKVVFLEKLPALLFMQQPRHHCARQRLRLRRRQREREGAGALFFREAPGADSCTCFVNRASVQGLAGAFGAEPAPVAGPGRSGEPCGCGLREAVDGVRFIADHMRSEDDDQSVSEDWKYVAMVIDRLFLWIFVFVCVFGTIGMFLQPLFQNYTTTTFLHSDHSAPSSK
T1 sequence (P09483 31-630): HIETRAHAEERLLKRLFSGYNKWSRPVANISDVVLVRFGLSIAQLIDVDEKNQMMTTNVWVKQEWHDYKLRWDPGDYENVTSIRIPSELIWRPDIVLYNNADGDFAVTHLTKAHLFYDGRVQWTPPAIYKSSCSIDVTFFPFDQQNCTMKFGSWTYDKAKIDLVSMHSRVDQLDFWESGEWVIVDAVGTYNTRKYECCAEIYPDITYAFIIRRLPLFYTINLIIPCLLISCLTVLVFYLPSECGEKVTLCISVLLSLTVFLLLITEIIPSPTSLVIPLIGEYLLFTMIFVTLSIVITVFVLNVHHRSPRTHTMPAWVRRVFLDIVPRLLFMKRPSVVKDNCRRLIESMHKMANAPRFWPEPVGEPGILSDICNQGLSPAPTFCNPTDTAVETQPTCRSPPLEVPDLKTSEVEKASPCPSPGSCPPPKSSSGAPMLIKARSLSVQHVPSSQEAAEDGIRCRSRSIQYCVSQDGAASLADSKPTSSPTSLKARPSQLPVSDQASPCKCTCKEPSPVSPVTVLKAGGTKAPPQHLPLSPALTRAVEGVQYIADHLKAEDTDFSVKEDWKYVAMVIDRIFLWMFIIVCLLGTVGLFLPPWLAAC
T1 sequence (P12390 25-500): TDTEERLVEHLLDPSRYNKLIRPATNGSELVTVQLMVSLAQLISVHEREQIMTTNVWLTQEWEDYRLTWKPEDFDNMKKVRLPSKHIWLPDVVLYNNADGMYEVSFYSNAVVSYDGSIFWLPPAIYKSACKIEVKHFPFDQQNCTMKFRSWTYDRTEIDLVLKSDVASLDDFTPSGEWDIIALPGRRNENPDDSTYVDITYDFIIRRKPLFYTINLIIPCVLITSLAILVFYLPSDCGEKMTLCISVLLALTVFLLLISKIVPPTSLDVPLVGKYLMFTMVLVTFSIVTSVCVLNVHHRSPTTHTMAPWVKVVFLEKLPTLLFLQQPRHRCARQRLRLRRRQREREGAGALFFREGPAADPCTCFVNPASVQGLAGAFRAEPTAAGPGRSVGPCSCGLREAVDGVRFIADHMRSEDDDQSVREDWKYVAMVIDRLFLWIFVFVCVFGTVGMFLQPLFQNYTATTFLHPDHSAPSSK

What is called Ki is a measure of affinity in units of concentration, obtained from inhibition or displacement. For the compound `CCc1nc2cc3c(cc2nc1CC)CCNCC3` [D], the “Rat α4β2 Ki (nM)” value in experiment [1] (setting [3]) was “Failed HTS”. Also, the Ki in experiment [2] (setting [4]) amounted to 460 nM.

As for `c1ccc(CNc2cnc3cc4c(cc3n2)CCNCC4)cc1` [M], the “Rat α4β2 Ki (nM)” value in experiment [1] (setting [3]) was “Failed HTS”. In addition, the Ki in experiment [2] (setting [4]) came to 530 nM.

Take `COc1cnc2cc3c(cc2n1)CCNCC3` [H]: the Ki in experiment [1] (setting [5]) was 77 nM; in experiment [2] (setting [4]) it was 25 nM.

`CNc1cnc2cc3c(cc2n1)CCNCC3` [K]: the “Rat α4β2 Ki (nM)” value in experiment [1] (setting [3]) was “Failed HTS”. Besides, the “Human α4β2 Ki (nM)” value in experiment [2] (setting [3]) is reported as “Failed HTS”.

As for `Cc1cnc2cc3c(cc2n1)CCNCC3` [E], the Ki in experiment [1] (setting [5]) amounted to 63 nM; in experiment [2] (setting [4]) it was 37 nM.

Regarding `CN1CCc2cc3nccnc3cc2CC1` [R], in experiment [1] (setting [3]), the “Rat α4β2 Ki (nM)” value is given as “Failed HTS”. For the same compound, the affinity in experiment [2] corresponds to a Ki of 210 nM.

As to `Clc1cnc2cc3c(cc2n1)CCNCC3` [J], the Ki in experiment [1] was determined as 12 nM; in experiment [2], 45 nM.

With `CCc1nc2cc3c(cc2nc1C)CCNCC3` [C], the “Rat α4β2 Ki (nM)” value in experiment [1] (setting [3]) is “Failed HTS”. In addition, the Ki in experiment [2] (setting [4]) stood at 310 nM.

Regarding `Cc1ccc2cc3c(cc2n1)CCNCC3` [Q], the Ki in experiment [1] (setting [5]) was 45 nM; in experiment [2] (setting [4]), 11 nM.

Turning to `COc1ccc2cc3c(cc2n1)CCNCC3` [P], the “Rat α4β2 Ki (nM)” value in experiment [1] (setting [3]) is “Failed HTS”. For the same compound, the Ki in experiment [2] (setting [4]) amounted to 1200 nM.

`O=c1cnc2cc3c(cc2[nH]1)CCNCC3` [G]: the Ki in experiment [1] (setting [5]) worked out at 120 nM; in experiment [2] (setting [4]), 63 nM.

As for `c1cncc(-c2cnc3cc4c(cc3n2)CCNCC4)c1` [I], the “Rat α4β2 Ki (nM)” value in experiment [1] (setting [3]) is reported as “Failed HTS”. Further, the Ki in experiment [2] amounted to 7400 nM.

For `CN(C)c1cnc2cc3c(cc2n1)CCNCC3` [L], in experiment [1] (setting [3]), the “Rat α4β2 Ki (nM)” value is on record as “Failed HTS”. The Ki in experiment [2] (setting [4]) stood at 740 nM.

With `Cc1nc2cc3c(cc2nc1C)CCNCC3` [B], the Ki in experiment [1] amounted to 590 nM; in experiment [2], 98 nM.

`Clc1ccc2cc3c(cc2n1)CCNCC3` [O]: the values for the Ki in experiment [1] and in experiment [2] were 3.1 nM and 0.48 nM, respectively.

Consider `c1cnc2cc3c(cc2c1)CCNCC3` [F], for which the Ki in experiment [1] (setting [5]) worked out at 3 nM; in experiment [2] (setting [4]), 0.93 nM.

With `O=c1ccc2cc3c(cc2[nH]1)CCNCC3` [N], the “Rat α4β2 Ki (nM)” value in experiment [1] (setting [3]) is reported as “Failed HTS”. Also, the “Human α4β2 Ki (nM)” value in experiment [2] (setting [3]) is recorded as “Failed HTS”.

Values taken from US20120053168A1, “FUSED BENZOAZEPINES AS NEURONAL NICOTINIC ACETYLCHOLINE RECEPTOR LIGANDS” (Targacept, Inc., priority 2009, published 2012).
